Measurements from patent EP0491041A1, “ANTIVIRAL DRUG” (NIPPON SHINYAKU COMPANY, LIMITED, priority 1989, dated 1991).
In brackets after ≈: the same amount, converted by molar mass.

Assays:
[1] = Acute toxicity test in mice; format: in vivo; settings: male mice, ddY strain, observation for one week
Experimental: Four male mice (ddY strain; six weeks age) were used for each drug tested.
In the intraperitoneal administration, each drug was suspended in 0.5% CMC-physiological saline solution and 0.1 ml (per 10 g body weight of mouse) of the suspension was intraperitoneally given to mouse. In the case of oral administration, each drug was suspended in 0.5% CMC-physiological saline solution and 0.2 ml (per 10 g body weight of mouse) of the suspension was given orally. Observation was started soon after administration and, after observation for one week, the mice were killed by chloroform and subjected to autopsied. LD₅₀ of each drug tested was given in the following tables wherefrom it is clear that the compounds of the present invention are safe.

[2] = system: virus; test: Antiviral action test: screening by inhibition of cell degeneration effect (CPE) in virus-infected HeLa cells; format: cell-based; settings: amount of added drug whereby the CPE became 50%, M.O.I = 0.002, culture for three days
Experimental: HeLa cells were subjected to subcultured by monolayer culture (Eagle's MEM-10% CS) and infected as M.O.I. (multiplicity of infection) = 0.01.
On the first day, HeLa cells were spread in a 75 cm³ flask and cultured on a one-day growth medium (Eagle's MEM-10% CS). On the second day, old medium was removed after confirming the formation of cell sheet, then M.O.I was made 0.01 PFU/cell and 0.5 ml of virus solution was added. The original virus solution was diluted with PBS-3% FCS solution. Operation of the virus inoculation was conducted by tilting for 1 hour at room temperature. After virus was inoculated on the cells, the virus-inoculated solution was removed, washed twice with 10 ml PBS and the residual virus solution was removed. Then 15 ml of maintenance medium (Eagle's MEM-1% CS) was added and cultured at 37°C for 2 days. The cells were observed from time to time and the culture was continued until cell fusion and cell rounding were confirmed. After the culture, medium was recovered which was used as a virus solution and was stored at -20°C until actual use.
The 78 cm³ flask containing HeLa cells which were subjected to a monolayer maintenance subculture was taken out, the old medium was discarded, 2-3 ml of 0.25% trypsine (Difco = 1:250)-0.02% EDTA/PBS(-) solution was added, tilted for a few seconds, the trypsine solution was removed and warmed at 37°C for 5 minutes. Then fresh medium was added, pipetted with a Komagome pipette and the cells were homogeneously dispersed.
Cells were counted using a cytometer, then fresh medium was added, diluted to make the cell concentration 5 x 10⁵ cells/ml, 2 ml of that was added to a laboratory dish of 35 mm diameter and cultured in a CO₂-incubator at 37°C for one day to prepare cell sheet.
The virus solution was diluted by a diluting solution to make diluted solutions of ten-times difference or step. The laboratory dish wherein HeLa cells were cultured on the previous day was taken out from the incubator, old medium was discarded and the cells were washed with each 2 ml of PBS twice. Properly diluted virus solution (0.2 ml) was added to each laboratory dish, subjected to a tilting at room temperature for 60 minutes immediately and virus was inoculated. Then the virus solution was removed, each 2 ml of 0.5% methylcellulose/Eagle's MEM-1% CS was added and cultured in a CO₂ incubator for 4 days.
The cultured laboratory dish was taken out from the CO₂-incubator and methylcellulose medium was removed. Then cells were washed with 2 ml of PDS, 2 ml of methanol was added, allowed to stand for 10 minutes and cells were immobilized and, at the same time, virus was sterilized. Hematoxylin dyeing solution (2 ml) was added to the laboratory dish which was immobilized with methanol, allowed to stand for about 10 minutes, washed with water and air-dried at room temperature. Since the cells destructed with virus were not dyed, plaque area was noted as a void and the plaque numbers were counted whereby virus value (PFU/ml) (Plaque forming units/ml) was measured.
HeLa cells during the subculture were dispersed with trypsine liquid-EDTA solution, 5 x 10⁵ cells/pore were embedded on a plate having 24 pores and cultured overnight at 37°C in a CO₂-incubator to prepare cell sheet.
As mentioned above, old medium was discarded, the cells were washed with PBS, the virus solution was diluted to make M.O.I = 0.002, 0.1 ml of it was added to each pore, subjected to a tilting at room temperature for 60 minutes and virus was inoculated to the cell.
Virus solution was removed from the cells after inoculation of virus, the cells were washed with 2 ml of PBS, each 1 ml of maintenance medium was added to each pore, then each 10 µl of the drug was added and the cells were cultured in a CO₂-incubator. Culture was conducted for three days.
The cells on the plate were observed under an invert microscope. Cell degeneration effect (CPE) was observed as cell fusion and making the cells round. […]

SMILES	L D ₅₀ ([1]; Intraperitoneal Administration)	L D ₅₀ ([1]; Oral Administration)	EC50 (50% CPE inhibition) [2]
CC(=CCN1C[C@H](O)[C@@H](O)[C@H](O)[C@H]1CO)c1ccc(C)cc1 [Compound No. 104, N-(gamma-Methyl-4-methylcinnamyl)moranoline]	> 300 mg/kg	> 5,000 mg/kg	10 µg/mL (≈ 32.5 µM)
CC(=CCCN1C[C@H](O)[C@@H](O)[C@H](O)[C@H]1CO)c1ccc(Oc2ccccc2)cc1 [Compound No. 115, N-[4-(4-Phenoxyphenyl)-3-pentenyl]moranoline]	> 300 mg/kg	> 5,000 mg/kg	1 µg/mL (≈ 2.5 µM)
OC[C@@H]1[C@@H](O)[C@H](O)[C@@H](O)CN1CCCCOc1ccc(Cl)cc1 [Compound No. 141, N-[4-(4-Chlorophenoxy)butyl]moranoline]	> 300 mg/kg	> 5,000 mg/kg	1 µg/mL (≈ 2.89 µM)
